# Measurements as given in ChEMBL document CHEMBL1143760, “Stereoselective synthesis of beta-1-C-substituted 1,4-dideoxy-1,4-imino-D-galactitols and evaluation as UDP-galactopyranose mutase inhibitors” (Bioorg Med Chem, 2007).
# Target: T1, UDP-galactopyranose mutase (Escherichia coli K-12) (UniProt P37747)
# T1 sequence (whole entry): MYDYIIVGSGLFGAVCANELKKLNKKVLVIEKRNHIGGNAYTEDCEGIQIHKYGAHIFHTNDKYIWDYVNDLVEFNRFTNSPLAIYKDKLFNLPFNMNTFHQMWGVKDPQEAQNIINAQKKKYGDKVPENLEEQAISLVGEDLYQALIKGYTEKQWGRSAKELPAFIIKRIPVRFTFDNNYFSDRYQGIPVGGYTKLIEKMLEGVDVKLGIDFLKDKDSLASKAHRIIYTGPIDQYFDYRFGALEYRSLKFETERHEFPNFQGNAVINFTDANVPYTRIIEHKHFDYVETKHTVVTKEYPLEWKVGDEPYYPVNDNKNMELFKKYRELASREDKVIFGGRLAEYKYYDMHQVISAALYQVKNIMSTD
# Assay: Inhibition of Escherichia coli UDP galactopyranose mutase at 25 mM
row,Compound,inhibition [%]
1,O=C1CC[C@H]2[C@H](O)[C@@H](O)[C@H]([C@H](O)CO)N12,< 50
2,CCOC(=O)CC[C@@H]1N[C@@H]([C@H](O)CO)[C@H](O)[C@H]1O,< 50
3,OC[C@@H](O)[C@H]1[C@H](O)[C@@H](O)[C@@H]2CCCN12,< 50
